ChEMBL document CHEMBL1201862, “PubChem BioAssay data set” (2004)
Where “and” joins values, the source holds several entries; their conditions need not be identical. Equal entries are not always repeated.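 Assay format: 96-well plates, 48-hour exposure. Abbreviation: GI50, concentration required for 50% inhibition of growth.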 Calls of active or inactive are those of the source. Rule as the data show it: active = GI50 up to about 1.1 µM and inactive = higher.

Tests used:
Assay in all cases: DTP human tumour cell line panel, 48 h
MDA-N = test system: MDA-N
ACHN = test system: ACHN
OVCAR-3 = test system: OVCAR-3
SW-620 = test system: SW-620
SF-539 = test system: SF-539
MDA-MB-231 = test system: MDA-MB-231
SR = test system: SR
A549 = test system: A549
M14 = test system: M14
SK-OV-3 = test system: SK-OV-3
UACC-257 = test system: UACC-257
HCT-15 = test system: HCT-15
DU-145 = test system: DU-145
HOP-92 = test system: HOP-92
A498 = test system: A498
CCRF-CEM = test system: CCRF-CEM
CAKI-1 = test system: CAKI-1
PC-3 = test system: PC-3
HOP-62 = test system: HOP-62
SN12C = test system: SN12C
TK-10 = test system: TK-10
HT-29 = test system: HT-29
OVCAR-8 = test system: OVCAR-8
MCF7 = test system: MCF7
Hs-578T = test system: Hs-578T
HL-60 = test system: HL-60
NCI-H23 = test system: NCI-H23
IGROV-1 = test system: IGROV-1
Malme-3M = test system: Malme-3M
SF-295 = test system: SF-295
RXF 393 = test system: RXF 393
UO-31 = test system: UO-31
SF-268 = test system: SF-268
HCC 2998 = test system: HCC 2998
COLO 205 = test system: COLO 205
U-251 = test system: U-251
SK-MEL-2 = test system: SK-MEL-2
SNB-19 = test system: SNB-19
NCI/ADR-RES = test system: NCI/ADR-RES
RPMI-8226 = test system: RPMI-8226
NCI-H522 = test system: NCI-H522
EKVX = test system: EKVX
OVCAR-5 = test system: OVCAR-5
SK-MEL-28 = test system: SK-MEL-28
SK-MEL-5 = test system: SK-MEL-5
SNB-75 = test system: SNB-75
LOX IMVI = test system: LOX IMVI
MOLT-4 = test system: MOLT-4
HCT-116 = test system: HCT-116
KM12 = test system: KM12
NCI-H226 = test system: NCI-H226
786-0 = test system: 786-0
T47D = test system: T47D
MDA-MB-435 = test system: MDA-MB-435
K562 = test system: K562
OVCAR-4 = test system: OVCAR-4
NCI-H460 = test system: NCI-H460
BT-549 = test system: BT-549
UACC-62 = test system: UACC-62

CCO/C=N\C1=C(C#N)SC2=N/C(=C\c3ccco3)C(=O)N21
GI50 (MDA-N): > 100 µM (inactive) | GI50 (ACHN): > 100 µM (inactive) | GI50 (OVCAR-3): > 100 µM (inactive) | GI50 (SW-620): > 100 µM (inactive) | GI50 (SF-539): > 100 µM (inactive) | GI50 (MDA-MB-231): > 100 µM (inactive) | GI50 (SR): > 100 µM (inactive) | GI50 (A549): > 100 µM (inactive) | GI50 (M14): > 100 µM (inactive) | GI50 (SK-OV-3): > 100 µM (inactive) | GI50 (UACC-257): > 100 µM (inactive) | GI50 (HCT-15): > 100 µM | GI50 (DU-145): > 100 µM (inactive) | GI50 (HOP-92): > 100 µM (inactive) | GI50 (A498): > 100 µM (inactive) | GI50 (CCRF-CEM): > 100 µM (inactive) | GI50 (CAKI-1): > 100 µM (inactive) | GI50 (PC-3): > 100 µM (inactive) | GI50 (HOP-62): > 100 µM (inactive) | GI50 (SN12C): > 100 µM (inactive) | GI50 (TK-10): > 100 µM (inactive) | GI50 (HT-29): > 100 µM (inactive) | GI50 (OVCAR-8): > 100 µM (inactive) | GI50 (MCF7): > 100 µM (inactive) | GI50 (Hs-578T): > 100 µM (inactive) | GI50 (HL-60): > 100 µM (inactive) | GI50 (NCI-H23): > 100 µM (inactive) | GI50 (IGROV-1): > 100 µM (inactive) | GI50 (Malme-3M): > 100 µM (inactive) | GI50 (SF-295): > 100 µM (inactive) | GI50 (RXF 393): > 100 µM (inactive) | GI50 (UO-31): > 100 µM (inactive) | GI50 (SF-268): > 100 µM (inactive) | GI50 (HCC 2998): > 100 µM (inactive) | GI50 (COLO 205): > 100 µM (inactive) | GI50 (U-251): > 100 µM (inactive) | GI50 (SK-MEL-2): > 100 µM (inactive) | GI50 (SNB-19): > 100 µM (inactive) | GI50 (NCI/ADR-RES): > 100 µM (inactive) | GI50 (RPMI-8226): > 100 µM (inactive) | GI50 (NCI-H522): > 100 µM (inactive) | GI50 (EKVX): > 100 µM (inactive) | GI50 (OVCAR-5): > 100 µM (inactive) | GI50 (SK-MEL-28): > 100 µM (inactive) | GI50 (SK-MEL-5): > 100 µM (inactive) | GI50 (SNB-75): > 100 µM (inactive) | GI50 (LOX IMVI): > 100 µM (inactive) | GI50 (MOLT-4): > 100 µM (inactive) | GI50 (HCT-116): > 100 µM (inactive) | GI50 (KM12): > 100 µM (inactive) | GI50 (NCI-H226): > 100 µM (inactive) | GI50 (786-0): > 100 µM (inactive) | GI50 (T47D): > 100 µM (inactive) | GI50 (MDA-MB-435): > 100 µM (inactive) | GI50 (K562): > 100 µM (inactive) | GI50 (OVCAR-4): > 100 µM (inactive)

CC(=O)OCC1OC(Sc2nc(-c3ccc(C)cc3)c(C#N)c(=O)n2C2OC(COC(C)=O)C(OC(C)=O)C(OC(C)=O)C2OC(C)=O)C(OC(C)=O)C(OC(C)=O)C1OC(C)=O (configuration not stated)
GI50 (ACHN): > 100 µM (inactive) | GI50 (OVCAR-3): > 100 µM (inactive) | GI50 (SW-620): > 100 µM (inactive) | GI50 (SF-539): > 100 µM (inactive) | GI50 (NCI-H460): > 100 µM (inactive) | GI50 (SR): > 100 µM (inactive) | GI50 (A549): > 100 µM (inactive) | GI50 (SK-OV-3): > 100 µM (inactive) | GI50 (UACC-257): > 100 µM (inactive) | GI50 (HCT-15): > 100 µM | GI50 (DU-145): > 100 µM (inactive) | GI50 (A498): > 100 µM (inactive) | GI50 (CCRF-CEM): 4.83 µM (inactive) and 6.76 µM (inactive) | GI50 (CAKI-1): > 100 µM (inactive) | GI50 (PC-3): > 100 µM (inactive) | GI50 (HOP-62): > 100 µM (inactive) | GI50 (SN12C): > 100 µM (inactive) | GI50 (TK-10): > 100 µM (inactive) | GI50 (HT-29): > 100 µM (inactive) | GI50 (OVCAR-8): > 100 µM (inactive) | GI50 (MCF7): > 100 µM (inactive) | GI50 (Hs-578T): > 100 µM (inactive) | GI50 (NCI-H23): > 100 µM (inactive) | GI50 (IGROV-1): > 100 µM (inactive) | GI50 (SF-295): > 100 µM (inactive) | GI50 (RXF 393): > 100 µM (inactive) | GI50 (BT-549): > 100 µM (inactive) | GI50 (UO-31): > 100 µM (inactive) | GI50 (SF-268): > 100 µM (inactive) | GI50 (U-251): > 100 µM (inactive) | GI50 (SK-MEL-2): > 100 µM (inactive) | GI50 (SNB-19): > 100 µM (inactive) | GI50 (NCI/ADR-RES): > 100 µM (inactive) | GI50 (RPMI-8226): > 100 µM (inactive) | GI50 (NCI-H522): > 100 µM (inactive) | GI50 (EKVX): > 100 µM (inactive) | GI50 (OVCAR-5): > 100 µM (inactive) | GI50 (SK-MEL-28): > 100 µM (inactive) | GI50 (SK-MEL-5): > 100 µM (inactive) | GI50 (SNB-75): > 100 µM (inactive) | GI50 (LOX IMVI): > 100 µM (inactive) | GI50 (MOLT-4): > 100 µM (inactive) | GI50 (HCT-116): > 100 µM (inactive) | GI50 (NCI-H226): > 100 µM (inactive) | GI50 (786-0): > 100 µM (inactive) | GI50 (T47D): > 100 µM (inactive) | GI50 (UACC-62): > 100 µM (inactive)

CC(C)(C)c1ccc(O)c(C(O)c2cccnc2)c1 (configuration not stated)
GI50 (ACHN): > 100 µM (inactive) | GI50 (OVCAR-3): > 100 µM (inactive) | GI50 (SW-620): > 100 µM (inactive) | GI50 (SF-539): > 100 µM (inactive) | GI50 (NCI-H460): > 100 µM (inactive) | GI50 (MDA-MB-231): > 100 µM (inactive) | GI50 (A549): > 100 µM (inactive) | GI50 (HCT-15): 72.1 µM | GI50 (DU-145): > 100 µM (inactive) | GI50 (CCRF-CEM): 96.6 µM (inactive) | GI50 (CAKI-1): > 100 µM (inactive) | GI50 (HOP-62): > 100 µM (inactive) | GI50 (HT-29): > 100 µM (inactive) | GI50 (OVCAR-8): > 100 µM (inactive) | GI50 (Hs-578T): > 100 µM (inactive) | GI50 (NCI-H23): > 100 µM (inactive) | GI50 (IGROV-1): > 100 µM (inactive) | GI50 (Malme-3M): > 100 µM (inactive) | GI50 (RXF 393): > 100 µM (inactive) | GI50 (BT-549): > 100 µM (inactive) | GI50 (UO-31): > 100 µM (inactive) | GI50 (SF-268): > 100 µM (inactive) | GI50 (HCC 2998): 76 µM (inactive) | GI50 (COLO 205): > 100 µM (inactive) | GI50 (NCI/ADR-RES): 94.6 µM (inactive) | GI50 (NCI-H522): > 100 µM (inactive) | GI50 (EKVX): > 100 µM (inactive) | GI50 (OVCAR-5): > 100 µM (inactive) | GI50 (SK-MEL-28): > 100 µM (inactive) | GI50 (SK-MEL-5): 35 µM (inactive) | GI50 (SNB-75): 57 µM (inactive) | GI50 (MOLT-4): > 100 µM (inactive) | GI50 (HCT-116): > 100 µM (inactive) | GI50 (KM12): > 100 µM (inactive) | GI50 (NCI-H226): > 100 µM (inactive) | GI50 (786-0): > 100 µM (inactive) | GI50 (T47D): 5.87 µM (inactive) | GI50 (UACC-62): 16.6 µM (inactive) | GI50 (K562): 81.5 µM (inactive)
